Experimental data reported in patent US20230364021A1 (CRITITECH, INC., priority 2020, published 2023).

Key:
Format in all cases: physicochemical
[1] = Particle size distribution (PSD) by laser diffraction, Malvern Mastersizer 3000
Procedure: (§1) Three precipitation runs (approximately 600-700 mg) were conducted on the RC612B precipitation unit, according to the examples provided on the preceding pages. Solvent was the single variable modified between each group of three precipitations. The precipitates were analyzed by laser diffraction to determine PSD, BET sorptometry to determine SSA, SEM to determine habit and support PSD and SSA data, and PXRD to determine crystalline/amorphous form.
PSD analyses were conducted on a Malvern Mastersizer™ 3000 using the Aero S dispersion unit according to the manufacturer instructions.

[2] = Specific surface area (SSA) by BET sorptometry
Procedure: As used herein, the “specific surface area” is the total surface area of the sorafenib particle per unit of sorafenib mass as measured by the Brunauer—Emmett—Teller (“BET”) isotherm (i.e.: the BET SSA). As will be understood by those of skill in the art, the SSA is determined on a per gram basis and takes into account both agglomerated and non-agglomerated sorafenib particles in the composition. The BET specific surface area test procedure is a compendial method included in both the United States Pharmaceopeia and the European Pharmaceopeia.
as §1
SSA determination analyses were conducted on a Quantachrome NOVAtouch™ LX^2 BET Sorptometer or a Porous Materials, Inc., Automated BET Sorptometer BET-202A according to the manufacturer instructions.

[3] = Shake-flask solubility in organic solvent/water mixtures; details: for Concentration of Sorafenib Found: 24 hours, 20-25° C.
Procedure: This method was conducted in acidic media. Development of a discriminating dissolution method at neutral pH (6.8 to 7.4) was pursued, as relevant for potential intra-tumoral delivery of the drug. The addition of organic solvents was used to increase the solubility of the compounds at neutral pH.
Solubility was determined by using a shake-flask method. The drug was added in excess to each solution prepared in duplicate. The vials were placed on a mechanical shaker for 24 hours at 20-25° C. After shaking, solution was removed and filtered through a 0.2 μm PTFE syringe filter and analyzed by UV/Visible spectrophotometry.

PSD: Volume Dv-10 [1]: 12.3 μm
SSA ([2]; listed as Raw): 1.02 m^2/g
SSA ([2]; listed as unprocessed material): 0.88 m^2/g
Concentration of Sorafenib Found ([3]; Ethanol, water to organic solvent ratio 25/75): 553 µg/mL
Concentration of Sorafenib Found ([3]; Ethanol, water to organic solvent ratio 50/50): 325 µg/mL
Concentration of Sorafenib Found ([3]; Methanol, water to organic solvent ratio 25/75): 503 µg/mL
Concentration of Sorafenib Found ([3]; Methanol, water to organic solvent ratio 50/50): 41.4 µg/mL
Concentration of Sorafenib Found ([3]; Methanol, water to organic solvent ratio 75/25): 2.45 µg/mL
Solubility versus organic solvent concentration ([3]; methanol/water and ethanol/water, both solvents): concentration dependent solubility
Structure (SMILES): CNC(=O)c1cc(Oc2ccc(NC(=O)Nc3ccc(Cl)c(C(F)(F)F)c3)cc2)ccn1 [Sorafenib, 4-(4-((((4-Chloro-3-(trifluoromethyl)phenyl)amino)carbonyl)amino)phenoxy)-N-methyl-2-pyridinecarboxamide]
